Laboratory results reported in publication PMC7649969, “Pyrazolyl-pyrimidones inhibit the function of human solute carrier protein SLC11A2 (hDMT1) by metal chelation” (RSC Medicinal Chemistry, 2020).
“Also recorded” adds a separate entry of the source.

How the values were obtained:
hDMT1 (SLC11A2) = target: T1, hDMT1 (SLC11A2) (Homo sapiens, UniProt P49281); experiment: radioactive iron uptake assay in HEK293 cells stably overexpressing hDMT1; assay type: cell-based; settings: for mode of inhibition: 55Fe2+ uptake kinetics; for Ki: [Fe^2+] → 0, Dixon plot analysis, read-out: inhibition constant Ki; for Ligand efficiency: from IC50 of radioactive iron uptake in HEK293-hDMT1; for IC50: radioactive iron 1 μM, 15 min incubation, extracellular pH 5.5, HEK293 stably overexpressing hDMT1; for inhibition constant Kii: saturating iron, 1/Vmax vs [I]
T1 construct: DsRED; expressed in transfected cells
T1 sequence (P49281 1-568): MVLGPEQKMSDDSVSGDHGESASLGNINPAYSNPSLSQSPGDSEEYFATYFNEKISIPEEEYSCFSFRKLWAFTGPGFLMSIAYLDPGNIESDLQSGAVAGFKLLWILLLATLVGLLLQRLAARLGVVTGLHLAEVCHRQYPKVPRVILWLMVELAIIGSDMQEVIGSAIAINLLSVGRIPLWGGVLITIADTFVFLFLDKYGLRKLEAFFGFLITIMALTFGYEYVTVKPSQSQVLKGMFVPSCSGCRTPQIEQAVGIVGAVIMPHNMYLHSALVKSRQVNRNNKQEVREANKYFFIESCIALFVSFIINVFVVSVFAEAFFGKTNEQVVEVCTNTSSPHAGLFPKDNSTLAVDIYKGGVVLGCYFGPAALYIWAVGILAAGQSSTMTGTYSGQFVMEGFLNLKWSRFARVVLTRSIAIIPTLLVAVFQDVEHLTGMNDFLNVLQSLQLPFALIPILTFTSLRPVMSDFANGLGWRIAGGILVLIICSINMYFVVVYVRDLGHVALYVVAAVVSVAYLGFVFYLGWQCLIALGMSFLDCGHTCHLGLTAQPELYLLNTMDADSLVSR

SLC39A8 (hZIP8) = target: T2, SLC39A8 (hZIP8) (Homo sapiens, UniProt Q9C0K1); experiment: 55Fe2+ uptake by HEK293T cells transiently transfected with hZIP8; assay type: cell-based; settings: for inhibition of 55Fe2+ uptake by hZIP8: compound 10 μM, 55Fe2+ 1 μM, pH 7.4, HEK293T; for IC50: HEK293T transiently transfected with hZIP8, 55Fe2+ 1 μM, pH 7.4
T2 construct: DsRED; expressed in transfected cells; host or cells: HEK293T (ATCC CRL-3216), transient transfection with Lipofectamine 2000
T2 sequence (Q9C0K1 23-460): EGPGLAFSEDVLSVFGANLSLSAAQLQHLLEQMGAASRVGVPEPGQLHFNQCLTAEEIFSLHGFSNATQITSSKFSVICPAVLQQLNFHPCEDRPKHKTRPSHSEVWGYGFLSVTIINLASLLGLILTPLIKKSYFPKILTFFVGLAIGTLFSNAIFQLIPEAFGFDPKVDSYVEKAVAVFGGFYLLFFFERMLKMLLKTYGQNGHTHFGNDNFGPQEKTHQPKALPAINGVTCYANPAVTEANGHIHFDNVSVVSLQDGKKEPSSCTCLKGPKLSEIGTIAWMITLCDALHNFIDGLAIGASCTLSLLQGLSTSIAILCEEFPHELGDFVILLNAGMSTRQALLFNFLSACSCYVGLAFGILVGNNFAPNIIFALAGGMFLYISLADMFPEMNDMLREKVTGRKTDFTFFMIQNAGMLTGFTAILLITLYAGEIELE
Excerpt: Complex formation with Fe^2+ should result in non-selective inhibition of different metal transporters. To test this hypothesis, we investigated whether human SLC39A8 (hZIP8), a transporter of Zn^2+ and Fe^2+ unrelated to SLC11 family, might also be inhibited by our hDMT1 inhibitors. Both SLCs can be tested by inhibition of radioactive iron uptake into HEK293 cells expressing the transporter, at pH 5.5 for hDMT1 and at pH 7.4 for hZIP8.
Fig. 5 Cross reactivity of hDMT1 inhibitors over the functional activity of the divalent metal transporter hZIP8. (a) ^55Fe^2+ uptake (1 μM) by HEK293T cells (source: American Type Culture Collection, catalog no. CRL-3216) transiently transfected with the empty vector (Ev), hDMT1 or hZIP8. Uptake assay was performed at the optimal pH for the functional activity of each transporter (pH 5.5 and pH 7.4 respectively). The indicated compounds (10 μM) were pre-incubated for 5 min, and then, for 15 min with both compound and ^55Fe^2+. Measured ^55Fe^2+ was corrected by subtracting the background iron uptake measured in non-transfected cells. The data was normalized to the Fe^2+ uptake measured in the presence of DMSO (0.1%) and represented as mean ± SD (N = 5–16; obtained from 2 independent experiments). IC50 determination for pyrazolyl-pyrimidone 13 (b) and bipyridine (c) in HEK293T cells transiently transfected with hDMT1 (left panels) or hZIP8 (right panels). ^55Fe^2+ uptake (1 μM) was measured in the presence of the indicated compound concentration ranges, and the measurements were corrected by subtracting the background iron uptake measured in non-transfected cells. IC50 values were calculated by fitting the data to a sigmoidal 4-parameter equation. Representative experiments are depicted, while IC50 values were calculated as mean ± SD of 3 different experiments.
Chemicals and reagents were purchased from Merck, except where indicated otherwise.
Cell Culture. Cellular experiments where conducted either with a HEK293 cell line (ATCC) stably expressing DsRED-hDMT1 plasmid or HEK293T cells (ATCC) transiently transfected with DsRED-hZIP8 or DsRED-hDMT1 plasmids. The cell line stably expressing hDMT1 was generated as described in previous works1,2. In both cases, cells were cultured in Dulbecco´s modified Eagle´s medium (DMEM) supplemented with 10 % foetal bovine serum (FBS), 10 mM HEPES and 1 mM Na-pyruvate under standard cell culture conditions (37 °C, 95 % humidity and air containing 5 % CO2). When culturing the hDMT1 overexpressing cell line, to maintain stable the expression of the exogenous plasmid, culture media was also supplemented with […] geneticin (Life Technologies). […]
Radiolabelled iron uptake assay. Cells were seeded in clear bottom, white-well, poly-D-lysine coated 96-well plates (Corning). HEK293 cells stably over-expressing hDMT1 were seeded 24 hours before the experiment at a density of 50,000 cells/well. HEK293T cells were seeded at 30,000 cells/well 48 hours before the experiment, and 24 hours after were transfected […]
using Lipofectamine 2000 (Life technologies) as described in the manufacturer’s protocol.
Before the uptake assay, culture media was aspirated and the cells were washed with the uptake solution (140 mM NaCl, 2.5 mM KCl, 1 mM CaCl2, 1 mM MgCl2, 1.2 mM K2HPO4, 10 mM glucose, 5 mM HEPES, 5 mM MES, pH 7.4). To determine the iron uptake, the cells were incubated for 15 min at room temperature (RT) with uptake solution (pH 5.5) supplemented with 100 µM Ascorbic acid, and the indicated amount of non-radioactive Ferrous iron (Fe2+) and radiolabelled 55Fe2+ (American Radiolabelled) (0.5 µCi/mL). To stop the uptake process, the solution containing the radiotracer was removed and cells were washed with ice-cold uptake solution (pH 7.5). To determine the iron accumulated within the cells during the incubation time, the scintillation cocktail Mycrosinth 20 (PerkinElmer) was added to each well, and the cells were incubated during 1 hour at RT under constant agitation. […]

mode of inhibition (hDMT1 (SLC11A2)) | Ki (hDMT1 (SLC11A2)) [µM] | Ligand efficiency (hDMT1 (SLC11A2)) | IC50 (hDMT1 (SLC11A2)) [µM] | potency weaker than originally reported value based on a calcein assay (hDMT1 (SLC11A2); radioactive iron uptake vs reported calcein assay) [fold] | inhibition constant Kii (hDMT1 (SLC11A2)) [µM] | inhibition of 55Fe2+ uptake by hZIP8 (SLC39A8 (hZIP8)) | improvement of IC50 over initial inhibitor 5 (hDMT1 (SLC11A2); radioactive iron uptake) [fold] | SMILES | IC50 (SLC39A8 (hZIP8)) [µM]
competitive inhibition | 1.4 | 0.35 | 1.76 ± 0.06 | 5 | 15.6 | no measurable activity on hZIP8 | – | N=C(N)SCc1cccc2c1oc1c(CSC(=N)N)cccc12 [Compound 1, reference compound] | –
– | – | – | – | – | – | inhibited both transporters | – | Cc1nn(-c2ccccn2)c(O)c1C(=O)Nc1cccc(C(F)(F)F)c1 [Compound 3, reference compound] | –
– | – | – | 13.1 ± 0.7 | – | – | inhibited both transporters | – | Cc1cc(O)nc(-n2nc(C)cc2C)n1 [Compound 5] | –

SMILES | mode of inhibition (hDMT1 (SLC11A2)) | Ki (hDMT1 (SLC11A2)) [µM] | Ligand efficiency (hDMT1 (SLC11A2)) | IC50 (hDMT1 (SLC11A2)) [µM] | potency weaker than originally reported value based on a calcein assay (hDMT1 (SLC11A2); radioactive iron uptake vs reported calcein assay) [fold] | inhibition constant Kii (hDMT1 (SLC11A2)) [µM] | inhibition of 55Fe2+ uptake by hZIP8 (SLC39A8 (hZIP8)) | improvement of IC50 over initial inhibitor 5 (hDMT1 (SLC11A2); radioactive iron uptake) [fold] | IC50 (SLC39A8 (hZIP8)) [µM]
Cc1cc(=O)[nH]c(-n2nc3c(c2C)CCCC3)n1 [Compound 13] | non-competitive inhibitor | 2 | 0.45 | 1.1 ± 0.01 | – | 1.7 | inhibited both transporters; also recorded: cross-inhibition | 10 | ~1.1
c1ccc(-c2ccccn2)nc1 [bipyridine] | – | – | – | – | – | – | inhibited both transporters | – | ~6.5
